Assays:
[1] = test system: genotype 1 chronic hepatitis C infection; assay: Study 101 Part C: pharmacodynamics of VX-222 (HCV plasma RNA); type: in vivo, Hepatitis C virus; settings: 750 mg b.i.d. for 3 consecutive days, treatment-naïve genotype 1 subjects
Procedure: In Part C of Study 101, VX-222 was administered as multiple doses of 750 mg b.i.d. to treatment-naïve subjects with chronic hepatitis C for 3 days. In addition, in Part A of Study 102, VX-222 was administered as multiple doses ranging from 250 mg to 750 mg BID and 1500 mg once a day to treatment-naïve subjects with chronic hepatitis C for 3 days. A primary objective of Part C of Study 101 was to assess the pharmacodynamics of VX-222 in treatment-naïve subjects with genotype 1 chronic hepatitis C infection. The final pharmacodynamic parameters of VX-222 administered at 750 mg b.i.d. for 3 consecutive days are outlined below: • The mean untransformed baseline (Day 1) HCV plasma RNA level was 4962600 IU/mL (log10=6.4927). • The mean maximum reduction from baseline calculated using the log10 predose HCV plasma RNA on Days 2 to 4 was −3.6784. The correlation between the predose RNA levels and the amplitude of the reduction in log 10 HCV RNA was relatively weak.

[2] = test system: genotype 1 HCV; assay: Study VX-222-102 Part A: plasma HCV RNA reduction; type: in vivo, Hepatitis C virus
Procedure: In Part A of Study 102 subjects were randomized to VX-222 or placebo in a 6:2 (VX-222: placebo) allocation ratio to either Cohort 1, Cohort 2, Cohort 3, or Cohort 4. Subjects enrolled in Cohort 1, Cohort 2, and Cohort 3 were administered 250 mg, 500 mf, or 750 mg VX-222 or placebo twice daily (b.i.d.) for 3 days, respectively. Subjects enrolled in Cohort 4 were administered 1,500 mg VX-222 or placebo once daily (qd) for 3 days. Standard of care treatment, Peg-IFN-alpha-2a and RBV was offered to the subjects at the end of dosing in Part A for up to 48 weeks, if judged appropriate by the physician.
Additional results of Study VX-222-102 are described in FIGS. 2-8: Thirty-two treatment-naïve patients with chronic genotype 1 HCV infection were enrolled in the trial, including six patients in each dose group who received 250 mg of VX-222 BID, 500 mg of VX-222 BID, 750 mg of VX-222 BID, and 1,500 mg of VX-222 QD. Two patients received placebo in each of the four dosing groups, for a total of eight patients who received placebo. Part A of the trial was conducted at 10 centers in the United States, Canada and Argentina. Of the patients enrolled in the trial, 24 patients had genotype 1a HCV infection and eight patients had genotype 1b HCV infection. Six of the patients enrolled in the trial were African American, 25 were Caucasian and one was American Indian/Alaskan.
Multicenter, randomized, double-blinded, placebo-controlled, dose-ranging study • HCV genotype 1-infected patients • With no evidence of cirrhosis • ALT values <5×ULM • Plasma HCV RNA of >5 log10 IU/mL at screening • 4-arm comparative study (6:2 randomization VX-222: placebo) • Enrollment in this dosing—ranging study was sequential • 250 mg BID for 3 days • 500 mg BID for 3 days • 750 mg BID for 3 days • 1500 mg QD for 3 days.

[3] = Study VX-222-002: combination treatment with VX-222 and VX-950 in healthy subjects (PK, safety); settings: for AUC(0-t) / Cmax / half-life: human, plasma, oral; for AUC(0-t) / Cmax: geometric mean (CV %)
[4] = in vitro IC90 of VX-222
[5] = VX-222 400 mg BID with VX-950 1125 mg BID, Day 37, healthy subjects, fed

Structure (SMILES): CC1CCC(C(=O)N(c2cc(C#CC(C)(C)C)sc2C(=O)O)C2CCC(O)CC2)CC1 (stereo not drawn) [VX-222, 5-(3,3-Dimethylbut-1-ynyl)-3-[(trans-4-hydroxycyclohexyl)-(4-trans methylcyclohexanecarbonyl)amino]thiophene-2-carboxylic acid]
- mean maximum reduction from baseline, log10 predose HCV plasma RNA on Days 2 to 4 [1]: −3.6784
- mean HCV RNA decline after three days of dosing ([2]; 250 mg BID): 3.1 log10
- Mean Viral Load Reduction at Day 4 ([2]; 250 mg b.i.d. for 3 days): −3.1
- mean HCV RNA decline after three days of dosing ([2]; 500 mg BID): 3.4 log10
- Mean Viral Load Reduction at Day 4 ([2]; 500 mg b.i.d. for 3 days): −3.4
- mean HCV RNA decline after three days of dosing ([2]; 750 mg BID): 3.2 log10
- Mean Viral Load Reduction at Day 4 ([2]; 750 mg b.i.d. for 3 days): −3.2
- mean HCV RNA decline after three days of dosing ([2]; 1,500 mg QD): 3.4 log10
- Mean Viral Load Reduction at Day 4 ([2]; 1,500 mg QD for 3 days): −3.4
- mean log HCV RNA decrease on Day 4 ([2]; Cohort 1, 250 mg b.i.d.): 3.1 log
- mean log HCV RNA decrease on Day 4 ([2]; Cohort 2, 500 mg b.i.d.): 3.4 log
- mean log HCV RNA decrease on Day 4 ([2]; Cohort 3, 750 mg b.i.d.): 3.2 log
- mean log HCV RNA decrease on Day 4 ([2]; Cohort 4, 1,500 mg once a day): 3.6 log
- mean reductions in plasma HCV RNA ([2]; across the four VX-222 dose groups): greater than 3 log10
- Tmax [3, 5]: 4 [4,6] hr
- VX-222 plasma exposures ([3]; co-administered with VX-950, healthy subjects): increased
- VX-222 administered with VX-950 versus VX-222 alone ([3]; healthy subjects): 2 fold
- AUC(0-t) ([3]; 400 mg, AUC0-12, VX-222 400 mg BID alone, Day 10, healthy subjects, fed): 8560 ng·h/mL
- Cmax ([3]; 400 mg, VX-222 400 mg BID alone, Day 10, healthy subjects, fed): 1770 ng/mL
- half-life ([3]; 400 mg, T1/2, VX-222 400 mg BID alone, Day 10, healthy subjects, fed): 2.7 h
- AUC(0-t) ([3]; 1000 mg, AUC0-12, VX-222 1000 mg BID alone, Day 10, healthy subjects, fed): 25800 ng·h/mL
- Cmax ([3]; 1000 mg, VX-222 1000 mg BID alone, Day 10, healthy subjects, fed): 4120 ng/mL
- half-life ([3]; 1000 mg, T1/2, VX-222 1000 mg BID alone, Day 10, healthy subjects, fed): 4 h
- AUC(0-t) ([3]; AUC0-12, VX-222 400 mg BID with VX-950 1125 mg BID, Day 37, healthy subjects, fed): 29500 ng·h/mL
- AUC(0-t) ([3]; AUC0-12, VX-222 1000 mg BID with VX-950 1125 mg BID, Day 37, healthy subjects, fed): 59900 ng·h/mL
- Cmax [3, 5]: 3950 ng/mL
- Cmax ([3]; VX-222 1000 mg BID with VX-950 1125 mg BID, Day 37, healthy subjects, fed): 8150 ng/mL
- half-life ([3]; T1/2, VX-222 400 mg BID with VX-950 1125 mg BID, Day 37, healthy subjects, fed): 5.4 h
- half-life ([3]; T1/2, VX-222 1000 mg BID with VX-950 1125 mg BID, Day 37, healthy subjects, fed): 3.5 h
- in vitro IC90 [4]: 0.319 µg/mL

Source: patent US20130034522A1, “THERAPIES FOR TREATING HEPATITIS C VIRUS INFECTION” (priority 2010, published 2013)
